Measured values published in patent US11964943B2, “3,5-diarylidenyl-n-substituted-piperid-4-one-derived inhibitors of Stat3 pathway activity and uses thereof” (priority 2017, dated 2024).
“And” between values parts separate entries of the source, which are not always exact repeats. Equal entries are not always repeated. Where two headings read alike, the source gives them in different places.

Key:
[1] = system: B16 (melanoma) cells; assay: MTT cytotoxicity assay, B16 cells
[2] = system: L1210 (lymphoma) cells; assay: MTT cytotoxicity assay, L1210 cells
[3] = Mus musculus, B16, 72 h, read-out: IC50 (μM) B16, 72 h exposure, MTT, mean of three independent experiments
[4] = Mus musculus, L1210, 72 h, read-out: IC50 (μM) L1210, 72 h exposure, MTT, mean of three independent experiments
[5] = read-out: IC50 (μM) B16, 72 h exposure, MTT, mean of three independent experiments
[6] = read-out: IC50 (μM) L1210, 72 h exposure, MTT, mean of three independent experiments

O=C1/C(=C/c2ccccc2)CNC/C1=C\c1ccccc1 [IA-1]
IC50 (μM) B16 ([1]; 72 h exposure, MTT, mean of three independent experiments): _Ta
IC50 [1, 3]: 5 ± 1 µM
IC50 [2, 4]: 0.5 µM

Cc1ccc(/C=C2\CNC/C(=C\c3ccc(C)cc3)C2=O)cc1 [IA-2]
IC50 [1, 5]: 8 ± 4 µM
IC50 [2, 6]: 3.1 ± 0.1 µM

O=C1/C(=C/c2ccc([N+](=O)[O-])cc2)CNC/C1=C\c1ccc([N+](=O)[O-])cc1 [IA-3]
IC50 [1, 3]: 15 µM
IC50 [2, 4]: 0.3 µM

COc1ccc(/C=C2\CNC/C(=C\c3ccc(OC)cc3)C2=O)cc1 [IA-4]
IC50 [1, 3]: 25 to 65 µM
IC50 ([1]; read-out: IC50 (μM) B16, 72 h exposure, MTT, mean of three independent experiments, listed as 4d): 43 µM
IC50 [2, 6]: 35 ± 8 µM

COc1ccc(/C=C2\CNC/C(=C\c3ccc(OC)c(O)c3)C2=O)cc1O [IA-5]
IC50 [1, 3]: 3 ± 1 µM
IC50 [2, 4]: 0.9 ± 0.3 µM

COc1cc(/C=C2\CNC/C(=C\c3ccc(O)c(OC)c3)C2=O)ccc1O [IA-6]
IC50 [1, 3]: 1.3 ± 0.6 µM
IC50 [2, 4]: 0.9 ± 0.4 µM

COc1ccc(/C=C2\CNC/C(=C\c3ccc(OC)c(OC)c3)C2=O)cc1OC [IA-7]
IC50 [1, 3]: 2.3 ± 0.5 µM
IC50 [2, 4]: 0.6 ± 0.2 µM

CN1C/C(=C\c2ccccc2)C(=O)/C(=C/c2ccccc2)C1 [IB-1]
IC50 [1, 3]: 5 ± 2 µM
IC50 [2, 4]: 2.4 ± 0.3 µM

Cc1ccc(/C=C2\CNC/C(=C\c3ccc(C)cc3)C2=O)cc1 [IB-2]
IC50 [1, 5]: 41 ± 6 µM
IC50 [2, 6]: 35 ± 5 µM

CN1C/C(=C\c2ccc([N+](=O)[O-])cc2)C(=O)/C(=C/c2ccc([N+](=O)[O-])cc2)C1 [IB-3]
IC50 [1, 5]: 41 ± 2 µM
IC50 ([1]; read-out: IC50 (μM) B16, 72 h exposure, MTT, mean of three independent experiments, listed as 5c): 4 µM
IC50 [2, 4]: 1.3 µM

COc1ccc(/C=C2\CN(C)C/C(=C\c3ccc(OC)cc3)C2=O)cc1 [IB-4]
IC50 [1, 3]: 23 µM
IC50 [2, 4]: 62 µM

COc1ccc(/C=C2\CN(C)C/C(=C\c3ccc(OC)c(O)c3)C2=O)cc1O [IB-5]
IC50 [1, 3]: 1.3 to 2.1 µM
IC50 [1, 5]: 2.1 ± 0.1 µM
IC50 [2, 4]: 0.8 to 1.9 µM
IC50 [2, 6]: 0.8 ± 0.4 µM

COc1cc(/C=C2\CN(C)C/C(=C\c3ccc(O)c(OC)c3)C2=O)ccc1O [IB-6]
IC50 [1, 3]: 1.3 to 2.1 µM
IC50 [1, 5]: 1.8 ± 0.3 µM
IC50 [2, 6]: 1.9 ± 0.4 µM

COc1ccc(/C=C2\CN(C)C/C(=C\c3ccc(OC)c(OC)c3)C2=O)cc1OC [IB-7]
IC50 [1, 3]: 1.3 to 2.1 µM
IC50 [1, 5]: 1.3 ± 0.1 µM
IC50 [2, 4]: 0.8 to 1.9 µM
IC50 [2, 6]: 1 ± 0.6 µM

Cc1ccc(/C=C2\CN(C(C)C)C/C(=C\c3ccc(C)cc3)C2=O)cc1 [IC-2]
IC50 [1, 3]: 4 ± 2 µM
IC50 [2, 4]: 2.5 ± 0.7 µM

CC(C)N1C/C(=C\c2ccc([N+](=O)[O-])cc2)C(=O)/C(=C/c2ccc([N+](=O)[O-])cc2)C1 [IC-3]
IC50 [1, 3]: 3.7 ± 0.6 µM
IC50 [2, 4]: 0.9 ± 0.6 µM

COc1cc(/C=C2\CN(C(C)C)C/C(=C\c3ccc(O)c(OC)c3)C2=O)ccc1O [IC-6]
IC50 [1, 3]: 2.2 ± 0.2 µM
IC50 [2, 4]: 2.2 ± 0.2 µM

COc1cc(/C=C2\CN(C(C)C)C/C(=C\c3cc(OC)c(OC)c(OC)c3)C2=O)cc(OC)c1OC [IC-8]
IC50 [1, 3]: 25 to 65 µM
IC50 ([1]; read-out: IC50 (μM) B16, 72 h exposure, MTT, mean of three independent experiments, listed as 6h): 25.6 µM
IC50 [2, 4]: 25 to 65 µM
IC50 ([2]; read-out: IC50 (μM) L1210, 72 h exposure, MTT, mean of three independent experiments, listed as 6h): 47 µM and 47.1 µM

O=C1/C(=C/c2ccccc2)CN(Cc2ccccc2)C/C1=C\c1ccccc1 [ID-1]
IC50 [1, 3]: 3.1 ± 0.1 µM
IC50 [2, 4]: 3.4 ± 0.5 µM

Cc1ccc(/C=C2\CN(Cc3ccccc3)C/C(=C\c3ccc(C)cc3)C2=O)cc1 [ID-2]
IC50 [1, 3]: 14 µM
IC50 [2, 4]: 9 µM

O=C1/C(=C/c2ccc([N+](=O)[O-])cc2)CN(Cc2ccccc2)C/C1=C\c1ccc([N+](=O)[O-])cc1 [ID-3]
IC50 [1, 3]: 2.5 ± 0.7 µM
IC50 [2, 4]: 2 ± 1 µM

COc1ccc(/C=C2\CN(Cc3ccccc3)C/C(=C\c3ccc(OC)cc3)C2=O)cc1 [ID-4]
IC50 [1, 3]: 27 µM
IC50 [2, 4]: 8 µM

COc1ccc(/C=C2\CN(Cc3ccccc3)C/C(=C\c3ccc(OC)c(O)c3)C2=O)cc1O [ID-5]
IC50 [1, 3]: 2.4 ± 0.5 µM
IC50 [2, 4]: 3.1 ± 0.1 µM

COc1cc(/C=C2\CN(Cc3ccccc3)C/C(=C\c3ccc(O)c(OC)c3)C2=O)ccc1O [ID-6]
IC50 [1, 3]: 2 ± 0.5 µM
IC50 [2, 4]: 2.8 ± 0.4 µM

COc1ccc(/C=C2\CN(Cc3ccccc3)C/C(=C\c3ccc(OC)c(OC)c3)C2=O)cc1OC [ID-7]
IC50 [1, 3]: 2 ± 0.4 µM
IC50 ([1]; read-out: IC50 (μM) B16, 72 h exposure, MTT, mean of three independent experiments, listed as 7g): 2.5 ± 0.4 µM
IC50 [2, 4]: 3.3 ± 0.1 µM

O=C1/C(=C/c2ccccc2)CN(c2ccccc2)C/C1=C\c1ccccc1 [IE-1]
IC50 [1, 3]: 7 µM
IC50 [2, 4]: 4 ± 2 µM
